Experimental data: US7632952B2, “Benzothiazoles and the use thereof as medicaments” (Aventis Pharma S.A., priority 2004, dated 2009)
Counter-ions that a name gives are not always drawn. Like-named read-outs stand apart in the source and are kept apart here.

Assays:
CDK4/cyclin D1 = CDK4/cyclin D1 (Homo sapiens, UniProt P11802); experiment: CDK4/cyclin D1 Flashplate test in 96-well format; type: biochemical
Experimental: 2. CDK4/cyclin D1 Protocol:
Purification of the CDK4-HA/cyclin D1-(His)6 Complex by IMAC (Immobilized Metal Affinity Chromatography):
Two recombinant baculoviruses bearing the human sequences coding, respectively, for CDK4-HA (C-terminal fusion with the hemaglutinin tag) and for cyclin D1-(His)6 are used to coinfect insect Sf9 cells. Sixty hours after the start of the coinfection, the cells are harvested by centrifugation and then frozen at −20° C. until the time of use.
CDK4/cyclin D1 Flashplate Test in 96-Well Format
A test in 96-well “Flashplate” plates coated with streptavidin is used to evaluate the inhibition of the CDK4/cyclin D1 kinase complex by the products of the invention. To perform this test, the biotinylated peptide substrate, a fragment of the pRb protein (biotinyl-[…]-amide) is dissolved at a concentration of 2 mM in kinase buffer (HEPES/NaOH 50 mM, NaCl 1 mM, MgCl2 5 mM, pH 7.5) in order to constitute a stock solution stored at −20° C. in the form of 110 μl aliquots. On the day of the experiment, an aliquot of this solution is thawed and diluted in kinase buffer containing 1 mM of dithiothreitol, and added to the buffer extemporaneously, in order to obtain a final peptide concentration of 2.571 μM. 70 μl of this solution are added to each well of the Flashplate in order to obtain a final substrate concentration of 1.8 μM during the enzymatic reaction, performed in a final volume of the reaction medium of 100 μl (cf. below). Intermediate dilutions of inhibitors (products of the invention) at various concentrations are prepared in DMSO from stock solutions at 10 mM in separate tubes. 1000 μM, 333.3 μM, 111.1 μM, 37.03 μM, 12.35 μM, 4.11 μM and 1.37 μM dilutions are thus prepared. 1 μl of each of these solutions (or 1 μl of DMSO for the controls) is then transferred into the wells of the test plate. Into each well are then added 19 μl of a solution of a mixture of adenosine triphosphate (ATP) and of ATPy^33P in the kinase buffer at a concentration of 5.26 μM of ATP total and 78.9 μCi/ml of ^33P. The enzymatic reaction is triggered by addition of 10 μl per well of a solution of CDK4/cyclin D1 at 250 nM in the kinase buffer containing 1 mM of dithiothreitol (or 10 μl of kinase buffer containing 1 mM of dithiothreitol for the reaction blanks).
(§1) After addition of all the reagents, the test plate is incubated at 30° C. with orbital stirring at 650 rpm. After the incubation, the plate is washed three times with 300 μl per well of PBS (phosphate-buffered saline, pH=7.4, without calcium or magnesium, reference 10010-015, Gibco BRL). The incorporation of ^33P into the substrate peptide is quantified by scintillation counting using a Packard Topcount.NXT machine. The inhibitory activity of the products of the invention is evaluated by measuring the inhibitory concentration that allows a 50% reduction in the enzymatic activity (IC50).

CDK2/cyclin E = CDK2/cyclin E (Homo sapiens, UniProt P24941); experiment: CDK2/cyclin E Flashplate test in 96-well format; type: biochemical
Experimental: 1. Protocol CDK2/cyclin E:
Purification of the CDK2/cyclin E-(His)6 Complex by IMAC (Immobilized Metal Affinity Chromatography):
Two recombinant baculoviruses bearing the human sequences coding, respectively, for CDK2 and cyclin E (the latter comprising a C-terminal hexahistidine tag) are used to coinfect insect Sf21 cells. Two to three days after the start of coinfection, the cells are harvested by centrifugation and then stored at −40° C. until the time of use. After thawing and mechanical lysis of the cells, the complex present in the lysis supernatant is purified by affinity chromatography on nickel (IMAC), and stored at −80° C.
CDK2/cyclin E Flashplate Test in 96-Well Format
A format in 96-well plates coated with streptavidin is used to test the activity of the compounds on the kinase activity of CDK2/cyclin E.
To perform this test, the biotinylated peptide substrate, a fragment of the pRb protein (biotinyl-[…]-OH) is dissolved at a concentration of 1 mM in kinase buffer (HEPES/NaOH 50 mM, NaCl 1 mM, MgCl2 5 mM, pH 7.5) in order to constitute a stock solution stored at −20° C. in the form of 110 μl aliquots. On the day of the experiment, an aliquot of this solution is thawed and diluted in kinase buffer containing 1 mM of dithiothreitol, and added to the buffer extemporaneously, in order to obtain a concentration of 14.3 μM. 70 μl of this solution are added to each well of the Flashplate in order to obtain a final substrate concentration of 10 μM during the enzymatic reaction, performed in a final volume of the reaction medium of 100 μl (cf. below).
Intermediate dilutions of inhibitors (products of the invention) at various concentrations are prepared in DMSO from stock solutions at 10 mM in separate tubes. 1000 μM, 333.3 μM, 111.1 μM, 37.03 μM, 12.35 μM, 4.11 μM and 1.37 μM dilutions are thus prepared. 1 μl of each of these solutions (or 1 μl of DMSO for the controls) is transferred into the wells of the test plate.
Into each well are then added 19 μl of a solution of a mixture of adenosine triphosphate (ATP) and of ATPy^33P in the kinase buffer at a concentration of 5.26 μM of ATP total and 52.6 μCi/ml of ^33P. The enzymatic reaction is triggered by addition of 10 μl per well of a solution of CDK2/cyclin E at 200 nM in the kinase buffer containing 1 mM of dithiothreitol (or 10 μl of kinase buffer containing 1 mM of dithiothreitol for the reaction blanks).
After addition of all the reagents, the plate is incubated at 30° C. with orbital stirring at 650 rpm.
as §1, with “When” for “After addition of all”, “incubation” for “reagents, the test plate”, “complete,” for “incubated at 30° C. with orbital stirring at 650 rpm. After the incubation,”, “the” for “the substrate”

HeLa = HeLa proliferation; type: cell-based; conditions: Homo sapiens, read-out: HeLa proliferation EC50 (nM) DG

Sequence of CDK4/cyclin D1 (P11802 whole entry): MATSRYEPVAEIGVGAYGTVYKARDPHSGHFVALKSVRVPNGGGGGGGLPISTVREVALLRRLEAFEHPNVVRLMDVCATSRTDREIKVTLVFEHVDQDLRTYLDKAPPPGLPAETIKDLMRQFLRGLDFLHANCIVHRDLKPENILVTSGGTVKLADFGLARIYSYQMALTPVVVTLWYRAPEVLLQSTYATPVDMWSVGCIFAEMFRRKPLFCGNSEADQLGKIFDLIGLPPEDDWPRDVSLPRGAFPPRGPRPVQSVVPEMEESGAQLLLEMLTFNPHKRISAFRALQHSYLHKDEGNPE
Sequence of CDK4/cyclin D1 (P24385 whole entry partner): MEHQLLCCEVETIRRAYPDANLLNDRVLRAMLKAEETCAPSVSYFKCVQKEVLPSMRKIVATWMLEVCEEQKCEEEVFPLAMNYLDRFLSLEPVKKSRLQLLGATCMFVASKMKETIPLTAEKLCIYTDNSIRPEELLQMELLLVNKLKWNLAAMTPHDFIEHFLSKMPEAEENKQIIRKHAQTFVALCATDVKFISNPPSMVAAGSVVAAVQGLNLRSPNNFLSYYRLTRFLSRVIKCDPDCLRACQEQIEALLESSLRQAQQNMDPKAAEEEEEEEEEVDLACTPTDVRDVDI

Row | IC50 (CDK4/cyclin D1) [nM] | IC50 (CDK2/cyclin E; read-out: CDK2 IC50) [nM] | EC50 (HeLa) [nM] | SMILES | IC50 (CDK2/cyclin E) [nM]
1 | 399 | 266 | 1330 | CC(C)CNc1ccc(S(=O)(=O)Oc2ccc3nc(NC(=O)CC4CCNCC4)sc3c2)cc1 [Example 28, 4-isobutylaminobenzenesulfonic acid 2-(2-piperid-4-ylacetylamino)benzothiazol-6-yl ester hydrochloride] | –
2 | 246 | 185 | 249 | CCCC(=O)Nc1nc2ccc(OS(=O)(=O)c3ccc(NCCNC(C)C)cc3)cc2s1 [Example 73, 4-(2-isopropylaminoethylamino)benzenesulfonic acid 2-butyrylaminobenzothiazol-6-yl ester; compound with trifluoroacetic acid] | –
3 | > 10000 | 8270 | – | CNCC(=O)Nc1nc2ccc(OS(=O)(=O)c3cccs3)cc2s1 [Example 33c, Thiophene-2-sulfonic acid 2-(2-methylamino-acetylamino)benzothiazol-6-yl ester; compound with trifluoroacetic acid] | –
4 | 3970 | 995 | – | CC(C)(O)CNc1ccc(S(=O)(=O)Oc2ccc3nc(NC(=O)C4CCNCC4)sc3c2)cc1 [Example 5, 4-(2-hydroxy-2-methylpropylamino)benzene-sulfonic acid 2-[(piperidine-4-carbonyl)amino]benzothiazol-6-yl ester] | –
5 | 8270 | 2950 | – | NCCC(=O)Nc1nc2ccc(OS(=O)(=O)c3cccs3)cc2s1 [Example 33d, Thiophene-2-sulfonic acid 2-(3-amino-propionylamino)benzothiazol-6-yl ester; compound with trifluoroacetic acid] | –
6 | 471 | 2720 | – | O=C(CC1CCNCC1)Nc1nc2ccc(OS(=O)(=O)c3ccc(NCCCn4ccnc4)cc3)cc2s1 [Example 19a, 4-(3-Imidazol-1-ylpropyl-amino)benzenesulfonic acid 2-(2-piperid-4-ylacetyl-amino)benzothiazol-6-yl ester hydrochloride] | –
7 | 914 | 299 | 1130 | CC(C)NCCNc1ccc(S(=O)(=O)Oc2ccc3nc(NC(=O)C4CCCC4)sc3c2)cc1 [Example 69, 4-(2-isopropylaminoethylamino)benzenesulfonic acid 2-(cyclopentanecarbonylamino)benzothiazol-6-yl ester] | –
8 | 2330 | 3060 | – | CC(C)N(CCNc1ccc(S(=O)(=O)Oc2ccc3nc(NC(=O)C4CNC4)sc3c2)cc1)C(C)C [Example 39, 4-(2-diisopropylaminoethylamino)benzenesulfonic acid 2-[(azetidine-3-carbonyl)amino]benzothiazol-6-yl ester] | –
9 | 783 | 547 | – | CCNCCNc1ccc(S(=O)(=O)Oc2ccc3nc(NC(=O)CCCCCCCN)sc3c2)cc1 [Example 22b, 4-(2-ethylaminoethyl-amino)benzene sulfonic acid 2-(8-aminooctanoyl-amino)benzothiazol-6-yl ester] | –
10 | > 10000 | 6340 | – | NCC(=O)Nc1nc2ccc(OS(=O)(=O)c3cccs3)cc2s1 [Example 33b, Thiophene-2-sulfonic acid 2-(2-amino-acetylamino)benzothiazol-6-yl ester; compound with trifluoroacetic acid] | –
11 | 683 | 220 | – | CC(C)(O)CNc1ccc(S(=O)(=O)Oc2ccc3nc(NC(=O)CCC4CCNCC4)sc3c2)cc1 [Example 84, 4-(2-hydroxy-2-methylpropylamino)benzene-sulfonic acid 2-(3-piperidin-4-ylpropionylamino)benzothiazol-6-yl ester hydrochloride] | –
12 | – | – | – | CC1(C)CC(Nc2ccc(S(=O)(=O)Oc3ccc4nc(NC(=O)C5CC5)sc4c3)cc2)CC(C)(C)N1[O] [Example 87, 4-(1-oxyl-2,2,6,6-tetramethylpiperidin-4-ylamino)-benzenesulfonic acid 2-(cyclopropanecarbonylamino)benzothiazol-6-yl ester] | 809
13 | 7100 | 1840 | – | NCCCCCCCC(=O)Nc1nc2ccc(OS(=O)(=O)c3cccs3)cc2s1 [Example 33f, Thiophene-2-sulfonic acid 2-(8-amino-octanoylamino)benzothiazol-6-yl ester; compound with trifluoroacetic acid] | –
14 | 1220 | 5780 | – | O=C(CC1CCNCC1)Nc1nc2ccc(OS(=O)(=O)c3ccc(NCCNCCO)cc3)cc2s1 [Example 19c, 4-[2-(2-Hydroxyethyl-amino)ethylamino]benzene-sulfonic acid 2-(2-piperid-4-ylacetylamino)benzo-thiazol-6-yl ester hydro-chloride] | –
15 | 732 | 5470 | – | CCNCCNc1ccc(S(=O)(=O)Oc2ccc3nc(NC(=O)CC4CCNCC4)sc3c2)cc1 [Example 19b, 4-(2-Ethylaminoethyl-amino)benzenesulfonic acid 2-(2-piperid-4-ylacetyl-amino)benzothiazol-6-yl ester hydrochloride] | –
16 | 202 | 1140 | – | CC(C)N(CCNc1ccc(S(=O)(=O)Oc2ccc3nc(NC(=O)CC4CCNCC4)sc3c2)cc1)C(C)C [Example 42, 4-(2-diisopropylaminoethylamino)benzenesulfonic acid 2-(2-piperid-4-ylacetylamino)benzothiazol-6-yl ester] | –
17 | 480 | 2680 | – | CC(C)NCCNc1ccc(S(=O)(=O)Oc2ccc3nc(NC(=O)CC4CCNCC4)sc3c2)cc1 [Example 18, 4-(2-isopropylaminoethylamino)benzenesulfonic acid 2-(2-piperid-4-ylacetylamino)benzothiazol-6-yl ester hydrochloride] | –
18 | 1570 | 1100 | – | NCCCCCCCC(=O)Nc1nc2ccc(OS(=O)(=O)c3ccc(NCCNCCO)cc3)cc2s1 [Example 22c, 4-[2-(2-hydroxyethyl-amino)ethylamino]benzene-sulfonic acid 2-(8-amino-octanoylamino)benzo-thiazol-6-yl ester hydro-chloride] | –
